Measurements reported in PMC3634028, “Novel α-MSH Peptide Analogues with Broad Spectrum Antimicrobial Activity” (PLoS ONE, 2013).
Converted amounts (≈) assume the structure as drawn. Where a SMILES comes first, the peptide text is derived from it.

Columns and labels:
[1] = test system: C. krusei; format: cell-based, Candida krusei; details: 48 h
Description: (§1) Two Candida albicans isolates were purchased from the ATCC (No. 24433 and 76615). The other yeast isolates were obtained from the collection of Fondazione Ca' Granda- Ospedale Maggiore Policlinico, Milano. The collection included C. albicans (7 isolates), C. glabrata (3 isolates), and C. krusei (3 isolates). Antifungal susceptibility testing was performed using the broth microdilution method according to the NCCLS M27-A guidelines (National Committee for Clinical Laboratory Standards. 1997, Reference method for broth dilution antifungal susceptibility testing of yeasts and approved standard NCCLS document M27-A. National Committee for Clinical Laboratory Standards, Wayne, Pa.). […] After 48 h of incubation, the plates were inspected for purity. A colony was taken from the agar plate and transferred into 5 mL Sabouraud-dextrose broth and incubated for 48 h at 35°C. Cells were centrifuged at 1,000× g for 10 min and the pellet was washed twice with distilled water. Cells were counted and suspended in RPMI 1640 medium buffered to pH 7.0 with 0.165 mol l^−1 morpholinepropanesulphonic acid (MOPS) buffer (Sigma) to obtain the two times test inoculum (1×10^3 to 5×10^3 CFU/mL). […] The MIC90, i.e. the minimum inhibitory concentrations endpoint were determined as 90% reduction in turbidity measured using a spectrophotometer (Titertek multiscan at 690 nm wave length).

[2] = test system: Candida strains (C. albicans, C. glabrata, C. krusei); test: Anti-Candida assay, overall result in words; format: cell-based, Candida spp; details: standard culture conditions, broth culture medium
Description: as §1

[3] = test system: C. glabrata; format: cell-based, Candida glabrata; details: 48 h
Description: as §1

[4] = test system: C. albicans; format: cell-based, Candida albicans; details: 48 h
Description: as §1

MIC 90 [1] [µM]	MIC 90 [3] [µM]	MIC 90 [4] [µM]	Structure (SMILES)	antimicrobial / anti-Candida activity (in words) [2]
97 (≈ 112 µg/mL)	>100		CC(C)[C@H](NC(=O)[C@H](Cc1ccccc1)NC(=O)[C@H](CCCCN)NC(=O)C(C)(C)NC(=O)[C@H](Cc1c[nH]c2ccccc12)NC(=O)[C@H](CCCNC(=N)N)NC(=O)[C@@H](Cc1ccc2ccccc2c1)NC(=O)[C@@H](N)Cc1c[nH]cn1)C(N)=O [Peptide 1, H-His-D(2′)Nal-Arg-Trp-Aib-Lys-Phe-Val-NH2] (HELM PEPTIDE1{H.[O=C([C@@H](Cc1ccc2ccccc2c1)N[*:1])[*:2]].R.W.[Aib].K.F.V.[am]}$$$$V2.0)	did not show antimicrobial activity
>100	>100	>100	CCC(CC)(NC(=O)[C@H](Cc1c[nH]c2ccccc12)NC(=O)[C@H](CCCNC(=N)N)NC(=O)[C@@H](Cc1ccc2ccccc2c1)NC(=O)[C@@H](N)Cc1c[nH]cn1)C(=O)N[C@@H](CCCCN)C(=O)N[C@@H](Cc1ccccc1)C(=O)N[C@H](C(N)=O)C(C)C [Peptide 2, H-His-D(2′)Nal-Arg-Trp-Deg-Lys-Phe-Val-NH2] (HELM PEPTIDE1{H.[O=C([C@@H](Cc1ccc2ccccc2c1)N[*:1])[*:2]].R.W.[CCC(CC)(N[*:1])C(=O)[*:2]].K.F.V.[am]}$$$$V2.0)	did not show antimicrobial activity
99 (≈ 115 µg/mL)	>100		CC(C)[C@H](NC(=O)[C@H](Cc1ccccc1)NC(=O)[C@H](CCCCN)NC(=O)C1(NC(=O)[C@H](Cc2c[nH]c3ccccc23)NC(=O)[C@H](CCCNC(=N)N)NC(=O)[C@@H](Cc2ccc3ccccc3c2)NC(=O)[C@@H](N)Cc2c[nH]cn2)CCC1)C(N)=O [Peptide 5, H-His-D(2′)Nal-Arg-Trp-Ac4c -Lys-Phe-Val-NH2] (HELM PEPTIDE1{H.[O=C([C@@H](Cc1ccc2ccccc2c1)N[*:1])[*:2]].R.W.[O=C(C1(N[*:1])CCC1)[*:2]].K.F.V.[am]}$$$$V2.0)	weak activity
>100	>100	>100	CC(C)[C@H](NC(=O)[C@H](Cc1ccccc1)NC(=O)[C@H](CCCCN)NC(=O)[C@@H]1CCC[C@H]1NC(=O)[C@H](Cc1c[nH]c2ccccc12)NC(=O)[C@H](CCCNC(=N)N)NC(=O)[C@@H](Cc1ccc2ccccc2c1)NC(=O)[C@@H](N)Cc1c[nH]cn1)C(N)=O [Peptide 12, H-His-D(2′)Nal-Arg-Trp-Acpc-Lys-Phe-Val-NH2] (HELM PEPTIDE1{H.[O=C([C@@H](Cc1ccc2ccccc2c1)N[*:1])[*:2]].R.W.[O=C([C@@H]1CCC[C@H]1N[*:1])[*:2]].K.F.V.[am]}$$$$V2.0)	no anti-Candida activity
>100	>100	>100	CC(C)[C@H](NC(=O)[C@H](Cc1ccccc1)NC(=O)[C@H](CCCCN)NC(=O)CNC(=O)CNC(=O)[C@H](Cc1c[nH]c2ccccc12)NC(=O)[C@H](CCCNC(=N)N)NC(=O)[C@@H](Cc1ccc2ccccc2c1)NC(=O)[C@@H](N)Cc1c[nH]cn1)C(N)=O [Peptide 13, H-His-D(2′)Nal-Arg-Trp-Gly-Gly-Lys-Phe-Val-NH2] (HELM PEPTIDE1{H.[O=C([C@@H](Cc1ccc2ccccc2c1)N[*:1])[*:2]].R.W.G.G.K.F.V.[am]}$$$$V2.0)	no activity

More lines, now with the values behind:

Structure (SMILES)	MIC 90 [1] [µM]	MIC 90 [3] [µM]	MIC 90 [4] [µM]	antimicrobial / anti-Candida activity (in words) [2]
CC(C)[C@H](NC(=O)[C@H](Cc1ccccc1)NC(=O)[C@H](CCCCN)NC(=O)C1(NC(=O)[C@H](Cc2c[nH]c3ccccc23)NC(=O)[C@H](CCCNC(=N)N)NC(=O)[C@@H](Cc2ccc3ccccc3c2)NC(=O)[C@@H](N)Cc2c[nH]cn2)CCCC1)C(N)=O [Peptide 6, H-His-D(2′)Nal-Arg-Trp-Ac5c-Lys-Phe-Val-NH2] (HELM PEPTIDE1{H.[O=C([C@@H](Cc1ccc2ccccc2c1)N[*:1])[*:2]].R.W.[O=C(C1(N[*:1])CCCC1)[*:2]].K.F.V.[am]}$$$$V2.0)	>100	>100		substantial activity
CC(C)[C@H](NC(=O)[C@H](Cc1ccccc1)NC(=O)[C@H](CCCCN)NC(=O)C1(NC(=O)[C@H](Cc2c[nH]c3ccccc23)NC(=O)[C@H](CCCNC(=N)N)NC(=O)[C@@H](Cc2ccc3ccccc3c2)NC(=O)[C@@H](N)Cc2c[nH]cn2)CCCCC1)C(N)=O [Peptide 7, H-His-D(2′)Nal-Arg-Trp-Ac6c -Lys-Phe-Val-NH2] (HELM PEPTIDE1{H.[O=C([C@@H](Cc1ccc2ccccc2c1)N[*:1])[*:2]].R.W.[O=C(C1(N[*:1])CCCCC1)[*:2]].K.F.V.[am]}$$$$V2.0)		>100	51 (≈ 60.9 µg/mL)	substantial activity
CC(C)[C@H](NC(=O)[C@H](Cc1ccccc1)NC(=O)[C@H](CCCCN)NC(=O)CCNC(=O)[C@H](Cc1c[nH]c2ccccc12)NC(=O)[C@H](CCCNC(=N)N)NC(=O)[C@@H](Cc1ccc2ccccc2c1)NC(=O)[C@@H](N)Cc1c[nH]cn1)C(N)=O [Peptide 11, H-His-D(2′)Nal-Arg-Trp-βAla-Lys-Phe-Val-NH2] (HELM PEPTIDE1{H.[O=C([C@@H](Cc1ccc2ccccc2c1)N[*:1])[*:2]].R.W.[bAla].K.F.V.[am]}$$$$V2.0)	>100	>100	>100	no anti-Candida activity
